Measurements reported in ChEMBL document CHEMBL5678818, “Discovery of potent SOS1 inhibitors that block RAS activation via disruption of the RAS-SOS1 interaction” (Proc Natl Acad Sci U S A, 2019).

Assays:
[1] = molecular target: T1, Tyrosine-protein kinase receptor TYRO3 (Homo sapiens) (UniProt Q06418); assay: Inhibition of TYRO3 (unknown origin) assessed as residual activity at 1000 nM by KINOMEscan analysis relative to control
T1 sequence (whole entry): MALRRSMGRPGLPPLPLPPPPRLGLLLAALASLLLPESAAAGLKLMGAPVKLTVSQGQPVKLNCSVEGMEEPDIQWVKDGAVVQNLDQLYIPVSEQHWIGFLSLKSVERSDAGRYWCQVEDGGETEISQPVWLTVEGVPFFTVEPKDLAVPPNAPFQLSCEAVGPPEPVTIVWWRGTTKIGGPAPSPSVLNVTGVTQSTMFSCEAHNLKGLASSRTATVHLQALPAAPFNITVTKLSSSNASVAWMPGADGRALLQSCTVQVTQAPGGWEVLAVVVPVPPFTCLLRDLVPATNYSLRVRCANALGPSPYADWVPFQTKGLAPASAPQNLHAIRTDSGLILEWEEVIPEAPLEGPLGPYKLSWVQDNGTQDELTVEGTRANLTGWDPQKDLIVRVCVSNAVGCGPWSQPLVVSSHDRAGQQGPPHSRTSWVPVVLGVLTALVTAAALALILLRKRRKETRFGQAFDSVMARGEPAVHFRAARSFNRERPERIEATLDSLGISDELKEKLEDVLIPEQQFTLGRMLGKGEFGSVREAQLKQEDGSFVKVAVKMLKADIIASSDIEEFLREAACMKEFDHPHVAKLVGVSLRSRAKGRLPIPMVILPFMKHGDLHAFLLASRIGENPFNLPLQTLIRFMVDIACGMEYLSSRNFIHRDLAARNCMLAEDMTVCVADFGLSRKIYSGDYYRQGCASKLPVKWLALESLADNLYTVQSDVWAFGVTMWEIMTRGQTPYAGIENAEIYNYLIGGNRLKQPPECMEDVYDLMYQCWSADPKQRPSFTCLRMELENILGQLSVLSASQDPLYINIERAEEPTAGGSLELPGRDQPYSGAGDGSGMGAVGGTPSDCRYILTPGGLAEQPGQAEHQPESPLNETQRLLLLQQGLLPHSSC

[2] = molecular target: T2, Myosin light chain kinase family member 4 (Homo sapiens) (UniProt Q86YV6); assay: Inhibition of MYLK4 (unknown origin) assessed as residual activity at 1000 nM by KINOMEscan analysis relative to control
T2 sequence (whole entry): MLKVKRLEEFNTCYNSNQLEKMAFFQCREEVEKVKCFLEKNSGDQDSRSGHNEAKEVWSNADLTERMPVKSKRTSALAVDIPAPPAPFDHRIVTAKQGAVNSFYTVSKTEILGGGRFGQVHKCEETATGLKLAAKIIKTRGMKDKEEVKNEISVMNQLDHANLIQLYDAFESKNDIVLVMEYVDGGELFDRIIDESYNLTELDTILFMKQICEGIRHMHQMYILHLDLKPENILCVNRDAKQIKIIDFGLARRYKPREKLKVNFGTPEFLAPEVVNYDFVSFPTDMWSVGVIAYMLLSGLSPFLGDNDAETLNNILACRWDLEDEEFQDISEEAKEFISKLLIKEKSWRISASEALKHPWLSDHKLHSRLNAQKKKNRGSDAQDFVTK

[3] = molecular target: Rho-associated protein kinase 1 (Homo sapiens) (UniProt Q13464); assay: Inhibition of ROCK1 (unknown origin) assessed as residual activity at 1000 nM by KINOMEscan analysis relative to control
Rho-associated protein kinase 1 (Homo sapiens), sequence (Q13464 2-1354 limits assumed): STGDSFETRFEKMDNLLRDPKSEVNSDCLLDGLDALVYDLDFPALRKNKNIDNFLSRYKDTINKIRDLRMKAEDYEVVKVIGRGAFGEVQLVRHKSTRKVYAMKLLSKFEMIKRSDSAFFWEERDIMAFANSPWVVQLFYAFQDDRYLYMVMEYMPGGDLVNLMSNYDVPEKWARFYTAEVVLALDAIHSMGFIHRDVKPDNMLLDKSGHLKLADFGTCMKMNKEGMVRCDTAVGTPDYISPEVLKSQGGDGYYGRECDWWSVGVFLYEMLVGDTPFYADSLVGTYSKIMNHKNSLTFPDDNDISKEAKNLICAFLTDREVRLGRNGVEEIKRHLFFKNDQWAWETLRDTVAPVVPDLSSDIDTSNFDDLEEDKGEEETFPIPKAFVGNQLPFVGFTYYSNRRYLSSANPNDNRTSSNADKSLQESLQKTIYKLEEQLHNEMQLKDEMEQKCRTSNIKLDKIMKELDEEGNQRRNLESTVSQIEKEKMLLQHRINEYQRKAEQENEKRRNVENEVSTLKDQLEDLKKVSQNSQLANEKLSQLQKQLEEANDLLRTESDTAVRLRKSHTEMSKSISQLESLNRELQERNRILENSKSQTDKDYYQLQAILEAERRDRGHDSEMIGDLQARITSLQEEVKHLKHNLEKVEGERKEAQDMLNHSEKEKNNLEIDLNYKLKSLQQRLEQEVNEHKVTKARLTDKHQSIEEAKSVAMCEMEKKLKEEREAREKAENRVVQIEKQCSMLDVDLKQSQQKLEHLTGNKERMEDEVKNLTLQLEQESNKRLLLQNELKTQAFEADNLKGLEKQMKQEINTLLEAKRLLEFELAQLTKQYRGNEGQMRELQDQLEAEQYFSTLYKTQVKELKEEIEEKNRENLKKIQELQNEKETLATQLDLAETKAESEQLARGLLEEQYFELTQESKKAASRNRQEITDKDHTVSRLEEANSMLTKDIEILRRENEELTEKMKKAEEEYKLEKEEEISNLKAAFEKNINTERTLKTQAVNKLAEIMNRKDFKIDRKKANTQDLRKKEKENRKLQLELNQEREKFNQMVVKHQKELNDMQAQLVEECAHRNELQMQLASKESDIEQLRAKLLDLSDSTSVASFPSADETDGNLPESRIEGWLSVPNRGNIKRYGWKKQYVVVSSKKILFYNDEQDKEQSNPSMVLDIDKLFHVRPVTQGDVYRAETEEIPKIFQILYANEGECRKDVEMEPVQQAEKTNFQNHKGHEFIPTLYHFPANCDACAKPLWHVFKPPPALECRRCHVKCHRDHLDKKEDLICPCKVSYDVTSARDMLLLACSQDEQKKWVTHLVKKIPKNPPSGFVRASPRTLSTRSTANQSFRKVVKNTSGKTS

[4] = molecular target: Glycogen synthase kinase-3 alpha (Homo sapiens) (UniProt P49840); assay: Inhibition of GSK3A (unknown origin) assessed as residual activity at 1000 nM by KINOMEscan analysis relative to control
Glycogen synthase kinase-3 alpha (Homo sapiens), sequence (P49840 2-483 limits assumed): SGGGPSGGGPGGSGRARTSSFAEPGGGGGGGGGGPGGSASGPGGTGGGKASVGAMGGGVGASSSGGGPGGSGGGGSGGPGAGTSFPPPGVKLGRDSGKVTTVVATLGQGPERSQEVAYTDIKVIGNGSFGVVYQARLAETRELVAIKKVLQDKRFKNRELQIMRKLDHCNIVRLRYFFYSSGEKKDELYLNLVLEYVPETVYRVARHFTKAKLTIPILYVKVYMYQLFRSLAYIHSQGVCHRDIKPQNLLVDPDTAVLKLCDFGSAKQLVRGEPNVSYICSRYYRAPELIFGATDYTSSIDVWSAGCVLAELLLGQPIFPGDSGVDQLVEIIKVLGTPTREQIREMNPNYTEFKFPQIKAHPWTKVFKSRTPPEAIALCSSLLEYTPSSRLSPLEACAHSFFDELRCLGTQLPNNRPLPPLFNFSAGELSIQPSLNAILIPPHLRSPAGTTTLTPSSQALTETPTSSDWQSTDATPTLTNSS

[5] = molecular target: Epithelial discoidin domain-containing receptor 1 (Homo sapiens) (UniProt Q08345); assay: Inhibition of DDR1 (unknown origin) assessed as residual activity at 1000 nM by KINOMEscan analysis relative to control
Epithelial discoidin domain-containing receptor 1 (Homo sapiens), sequence (Q08345 whole entry, the tested form may be a part): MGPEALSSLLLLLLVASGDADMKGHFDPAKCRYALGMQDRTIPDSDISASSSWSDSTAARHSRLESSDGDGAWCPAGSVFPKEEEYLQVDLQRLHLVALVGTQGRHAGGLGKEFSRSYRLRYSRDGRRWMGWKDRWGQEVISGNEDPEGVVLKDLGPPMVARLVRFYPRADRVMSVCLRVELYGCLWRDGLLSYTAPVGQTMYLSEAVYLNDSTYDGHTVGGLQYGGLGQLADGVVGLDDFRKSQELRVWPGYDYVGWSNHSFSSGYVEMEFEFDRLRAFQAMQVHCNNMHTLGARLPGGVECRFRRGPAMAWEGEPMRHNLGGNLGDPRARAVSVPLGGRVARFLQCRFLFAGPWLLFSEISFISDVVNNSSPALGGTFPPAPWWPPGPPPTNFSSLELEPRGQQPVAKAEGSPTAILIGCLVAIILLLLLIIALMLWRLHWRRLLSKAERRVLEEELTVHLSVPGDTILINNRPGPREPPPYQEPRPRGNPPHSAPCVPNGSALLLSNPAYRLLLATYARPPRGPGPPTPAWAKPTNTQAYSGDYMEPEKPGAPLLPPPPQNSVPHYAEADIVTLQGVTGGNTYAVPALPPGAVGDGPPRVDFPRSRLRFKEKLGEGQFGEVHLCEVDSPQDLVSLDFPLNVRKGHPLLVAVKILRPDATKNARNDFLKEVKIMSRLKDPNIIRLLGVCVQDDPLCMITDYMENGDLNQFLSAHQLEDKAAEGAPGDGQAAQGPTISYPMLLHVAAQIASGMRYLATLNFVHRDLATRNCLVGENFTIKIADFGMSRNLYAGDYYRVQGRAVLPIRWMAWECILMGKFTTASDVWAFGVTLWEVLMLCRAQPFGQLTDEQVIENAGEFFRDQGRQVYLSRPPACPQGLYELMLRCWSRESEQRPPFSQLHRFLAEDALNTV

[6] = test system: Tyrosine-protein kinase ABL1 (Homo sapiens), P00519 [T315I]; assay: Inhibition of phosphorylated ABL1 T315I mutant (unknown origin) assessed as residual activity at 1000 nM by KINOMEscan analysis relative to control
[7] = molecular target: Mitogen-activated protein kinase kinase kinase 10 (Homo sapiens) (UniProt Q02779); assay: Inhibition of MLK2 (unknown origin) assessed as residual activity at 1000 nM by KINOMEscan analysis relative to control
[8] = molecular target: Ephrin type-A receptor 7 (Homo sapiens) (UniProt Q15375); assay: Inhibition of EPHA7 (unknown origin) assessed as residual activity at 1000 nM by KINOMEscan analysis relative to control
[9] = molecular target: Rho-associated protein kinase 2 (Homo sapiens) (UniProt O75116); assay: Inhibition of ROCK2 (unknown origin) assessed as residual activity at 1000 nM by KINOMEscan analysis relative to control
Rho-associated protein kinase 2 (Homo sapiens), sequence (O75116 whole entry, looked up): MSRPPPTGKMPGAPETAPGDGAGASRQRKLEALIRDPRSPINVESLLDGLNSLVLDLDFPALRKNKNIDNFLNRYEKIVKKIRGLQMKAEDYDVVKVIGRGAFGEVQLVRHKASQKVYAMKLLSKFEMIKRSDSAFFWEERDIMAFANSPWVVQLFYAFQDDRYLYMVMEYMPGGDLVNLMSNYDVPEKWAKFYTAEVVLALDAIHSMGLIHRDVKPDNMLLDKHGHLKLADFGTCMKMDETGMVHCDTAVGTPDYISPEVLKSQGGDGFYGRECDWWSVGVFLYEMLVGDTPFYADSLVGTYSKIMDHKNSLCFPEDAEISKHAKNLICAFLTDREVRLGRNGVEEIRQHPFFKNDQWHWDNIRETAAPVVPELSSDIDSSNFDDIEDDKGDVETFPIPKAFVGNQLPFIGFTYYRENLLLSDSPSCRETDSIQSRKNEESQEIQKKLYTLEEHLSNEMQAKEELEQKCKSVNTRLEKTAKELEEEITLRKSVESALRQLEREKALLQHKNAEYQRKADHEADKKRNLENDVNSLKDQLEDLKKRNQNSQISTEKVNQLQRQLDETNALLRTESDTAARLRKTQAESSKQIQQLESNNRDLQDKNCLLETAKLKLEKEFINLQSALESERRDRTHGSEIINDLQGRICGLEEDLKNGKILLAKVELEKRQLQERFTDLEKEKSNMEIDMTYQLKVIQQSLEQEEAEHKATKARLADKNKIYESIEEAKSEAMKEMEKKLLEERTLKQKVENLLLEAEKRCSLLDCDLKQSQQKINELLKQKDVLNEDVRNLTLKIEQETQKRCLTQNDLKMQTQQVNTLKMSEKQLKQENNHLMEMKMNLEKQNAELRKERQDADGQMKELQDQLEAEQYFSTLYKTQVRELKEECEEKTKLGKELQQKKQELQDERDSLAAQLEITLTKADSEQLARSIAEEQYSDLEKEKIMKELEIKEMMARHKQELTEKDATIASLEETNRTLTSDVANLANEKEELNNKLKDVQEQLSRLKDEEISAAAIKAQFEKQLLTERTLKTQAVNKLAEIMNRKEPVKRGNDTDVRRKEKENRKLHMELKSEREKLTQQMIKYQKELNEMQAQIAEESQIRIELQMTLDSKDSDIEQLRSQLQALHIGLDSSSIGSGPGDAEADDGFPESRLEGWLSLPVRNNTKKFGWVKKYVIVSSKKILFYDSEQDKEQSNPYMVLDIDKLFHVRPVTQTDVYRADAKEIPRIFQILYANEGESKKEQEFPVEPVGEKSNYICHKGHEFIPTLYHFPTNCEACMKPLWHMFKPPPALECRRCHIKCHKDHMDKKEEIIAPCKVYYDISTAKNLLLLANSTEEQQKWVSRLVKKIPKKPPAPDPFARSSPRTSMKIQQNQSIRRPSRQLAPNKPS

[10] = molecular target: Serine/threonine-protein kinase 32C (Homo sapiens) (UniProt Q86UX6); assay: Inhibition of YANK3 (unknown origin) assessed as residual activity at 1000 nM by KINOMEscan analysis relative to control
Serine/threonine-protein kinase 32C (Homo sapiens), sequence (Q86UX6 whole entry): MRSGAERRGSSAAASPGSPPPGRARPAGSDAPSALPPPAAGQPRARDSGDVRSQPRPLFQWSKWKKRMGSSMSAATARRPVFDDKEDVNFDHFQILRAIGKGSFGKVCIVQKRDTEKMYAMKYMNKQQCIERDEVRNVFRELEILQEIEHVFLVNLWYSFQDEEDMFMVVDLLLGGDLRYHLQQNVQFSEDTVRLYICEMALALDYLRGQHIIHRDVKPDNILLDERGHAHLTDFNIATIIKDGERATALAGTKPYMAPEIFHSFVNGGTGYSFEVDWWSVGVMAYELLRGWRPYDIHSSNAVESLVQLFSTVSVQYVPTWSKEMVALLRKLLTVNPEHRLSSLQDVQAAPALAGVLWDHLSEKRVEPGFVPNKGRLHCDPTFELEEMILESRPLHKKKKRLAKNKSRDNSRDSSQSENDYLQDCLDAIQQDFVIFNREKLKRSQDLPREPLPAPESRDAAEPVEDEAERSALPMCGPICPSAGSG

[11] = molecular target: Dual specificity protein kinase CLK2 (Homo sapiens) (UniProt P49760); assay: Inhibition of CLK2 (unknown origin) assessed as residual activity at 1000 nM by KINOMEscan analysis relative to control
[12] = molecular target: T3, Receptor-interacting serine/threonine-protein kinase 1 (Homo sapiens) (UniProt Q13546); assay: Inhibition of RIPK1 (unknown origin) assessed as residual activity at 1000 nM by KINOMEscan analysis relative to control
T3 sequence (whole entry): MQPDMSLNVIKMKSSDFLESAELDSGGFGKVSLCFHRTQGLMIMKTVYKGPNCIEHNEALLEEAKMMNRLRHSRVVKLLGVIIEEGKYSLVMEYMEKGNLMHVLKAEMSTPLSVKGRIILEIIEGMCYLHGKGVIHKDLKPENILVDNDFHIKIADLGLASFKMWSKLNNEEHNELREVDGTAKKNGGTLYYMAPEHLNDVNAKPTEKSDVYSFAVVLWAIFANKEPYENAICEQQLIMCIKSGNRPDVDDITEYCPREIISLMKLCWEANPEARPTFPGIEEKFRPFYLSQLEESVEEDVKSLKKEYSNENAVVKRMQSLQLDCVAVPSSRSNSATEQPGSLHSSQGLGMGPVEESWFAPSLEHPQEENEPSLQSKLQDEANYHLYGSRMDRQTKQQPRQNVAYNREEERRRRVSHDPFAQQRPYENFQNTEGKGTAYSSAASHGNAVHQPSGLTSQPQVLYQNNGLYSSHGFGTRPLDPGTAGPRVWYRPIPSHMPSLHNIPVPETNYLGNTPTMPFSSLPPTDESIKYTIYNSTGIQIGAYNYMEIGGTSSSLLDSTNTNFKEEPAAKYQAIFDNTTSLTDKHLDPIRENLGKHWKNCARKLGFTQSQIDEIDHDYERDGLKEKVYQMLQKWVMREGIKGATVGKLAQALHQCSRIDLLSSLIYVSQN

## COc1cc2nc(C)nc(N[C@H](C)c3cccc(-c4cn[nH]c4)c3)c2cc1OC
[1]
  Activity: 66%
[2]
  Activity: 92%
[3]
  Activity: 96%
[4]
  Activity: 95%
[5]
  Activity: 95%
[6]
  Activity: 99%
[7]
  Activity: 42%
[8]
  Activity: 100%
[9]
  Activity: 72%
[10]
  Activity: 98%
[11]
  Activity: 78%
[12]
  Activity: 85%

## COc1cc2ncnc(N[C@H](C)c3cccc4ccccc34)c2cc1OC
[1]
  Activity: 90%
[2]
  Activity: 75%
[3]
  Activity: 88%
[4]
  Activity: 70%
[5]
  Activity: 100%
[6]
  Activity: 96%
[7]
  Activity: 97%
[8]
  Activity: 88%
[9]
  Activity: 91%
[10]
  Activity: 100%
[11]
  Activity: 100%
[12]
  Activity: 93%
